Active and inactive are the calls of the source. The rule behind the calls is not given here.
Columns and labels:
Assay type in all cases: functional, organism-based
Conditions in all cases: dose 50.0 µg
Bacillus subtilis = assay: Antibacterial activity against Bacillus subtilis assessed as inhibition of bacterial growth at 50 ug incubated for 24 hrs by paper disc method
Escherichia coli = assay: Antibacterial activity against Escherichia coli assessed as inhibition of bacterial growth at 50 ug incubated for 24 hrs by paper disc method
Staphylococcus aureus = assay: Antibacterial activity against Staphylococcus aureus assessed as inhibition of bacterial growth at 50 ug incubated for 24 hrs by paper disc method

Row | SMILES | Activity (Bacillus subtilis) | Activity (Escherichia coli) | Activity (Staphylococcus aureus)
1 | OCC(O)CO | inactive | inactive | inactive
2 | CC/C=C\C[C@@H]1C(=O)C=C[C@@H]1CCCCCCCC(=O)O | Active | inactive | Active
3 | CC/C=C\C[C@H]1C(=O)CC[C@@H]1CC(=O)O | inactive | inactive | inactive
4 | CC/C=C\C[C@@H]1C(=O)C=C[C@@H]1CCCCCCCC(=O)OCC(O)CO (some centres not stated) | Active | inactive | Active

— ChEMBL document CHEMBL5634177, “Isolation and Structure Determination of cis-OPDA-α-Monoglyceride from Arabidopsis thaliana” (J Nat Prod, 2024)
